Experimental data taken from PubChem BioAssay (NCI).
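Briefly, cells in 96-well plates were exposed to five compound concentrations for 48 h, and endpoints were estimated by linear interpolation. TGI: total growth inhibition.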 Where a SMILES comes first, the peptide text is derived from it. The star is where a group is joined. Fmoc = O=C(OCC1c2ccccc2-c2ccccc21)*; OBn = c1ccc(CO*)cc1; tBu = CC(C)(C)*

Tests used:
Test in all cases: NCI anticancer screen, dose series, 48 h
HL-60(TB) leukemia = test system: HL-60(TB) leukemia
SK-MEL-28 melanoma = test system: SK-MEL-28 melanoma
OVCAR-5 ovarian = test system: OVCAR-5 ovarian
HCT-15 colon = test system: HCT-15 colon
PC-3 prostate = test system: PC-3 prostate
MDA-N = test system: MDA-N
786-0 renal = test system: 786-0 renal
UO-31 renal = test system: UO-31 renal
SF-539 CNS = test system: SF-539 CNS
NCI-H23 lung = test system: NCI-H23 lung
RXF 393 renal = test system: RXF 393 renal

| SMILES | TGI (HL-60(TB) leukemia) [µM] | TGI (SK-MEL-28 melanoma) [µM] | TGI (OVCAR-5 ovarian) [µM] | TGI (HCT-15 colon) [µM] | TGI (PC-3 prostate) [µM] | TGI (MDA-N) [µM] | TGI (786-0 renal) [µM] | TGI (UO-31 renal) [µM] | TGI (SF-539 CNS) [µM] | TGI (NCI-H23 lung) [µM] | TGI (RXF 393 renal) [µM] |
| --- | --- | --- | --- | --- | --- | --- | --- | --- | --- | --- | --- |
| CC(C)(C)OC(=O)N1CCC2(CC1)C(=O)NCN2c1ccccc1 | > 100 | > 100 | > 100 | > 100 | > 100 | > 100 | > 100 | > 100 | > 100 | > 100 | > 100 |
| CCOC(=O)CCC(NC(=O)c1ccc(NCc2ccc3nc(OC)c(OC)nc3c2)c2ccccc12)C(=O)OCC (stereo unspecified) | > 100 | > 100 | > 100 | > 100 | > 100 | > 100 | > 100 | > 100 | 56.5 | > 100 | > 100 |
| O=[N+]([O-])/C=C/c1cn(CCCCCCCCn2cc(/C=C/[N+](=O)[O-])c3ccccc32)c2ccccc12 | > 10 | > 10 | > 10 | > 10 | > 10 | > 10 | > 10 | > 10 | > 10 | > 10 | > 10 |
| O=[N+]([O-])C(/C=C(\Cl)[N+](=O)[O-])=C(Nc1ccccc1)Nc1ccccc1 | 14.9 | 24.6 | 20.1 | 22.3 | 28.8 | 18.7 | 14.3 | 25.3 | 24 | 23.2 | 10.5 |
| c1ccc(CN2CCC(CNc3ncnc4ccccc34)C2)cc1 (stereo unspecified) | > 100 | 85.8 | > 100 | > 100 | > 100 | > 100 | > 100 | > 100 | > 100 | > 100 | > 100 |
| CC1=NN(c2cc(Cl)c(S(=O)(=O)O)cc2Cl)C2(C1)C(Cl)C(=O)N2c1nc2ccccc2s1 (stereo unspecified) | > 100 | > 100 | > 100 | > 100 | > 100 | > 100 | > 100 | 76.5 | > 100 | > 100 | > 100 |
| CC1CC[C@@]2(OC1)OC1C[C@H]3[C@@H]4CC=C5C[C@@H](OC6OC(CO)C(OC7OC(CO)C(O)C(O)C7O)C(O)C6OC6OC(C)C(O)C(O)C6O)CC[C@]5(C)[C@H]4CC[C@]3(C)C1[C@@H]2C (stereo partly specified) | 1.97 | 1.02 | 4.58 | 6.95 | 0.93 | 2.34 | 0.88 | 0.887 | 0.88 | 2.57 | 0.857 |
| CCOc1ccc(Nc2nc(N)nc(N)c2N=O)cc1 | > 100 | > 100 | > 100 | > 100 | > 100 | > 100 | > 100 | 83.3 | > 100 | > 100 | > 100 |
| COC(=O)[C@]1(c2cc3ccccc3[nH]2)CC2CNC1C1OC(C)(C)OC21 (stereo partly specified) | > 100 | > 100 | > 100 | > 100 | > 100 | > 100 | > 100 | > 100 | > 100 | > 100 | > 100 |
| CC(C)NC(=O)OCCN=C1c2ccccc2C(Br)C(Br)c2ccccc21 (stereo unspecified) | 2.6 | 35.1 | 27.3 | > 69.8 | > 48.8 | 28.9 | 8.34 | 8.97 | 9.64 | 53.8 | 6.66 |
| CSC1=C(C)C(/C=N/Nc2ccc([N+](=O)[O-])cc2)=C(C)N(c2ccccc2)S1(=O)=O | 17.5 | > 100 | > 100 | > 100 | > 100 | > 100 | > 100 | > 100 | > 100 | > 100 | > 100 |
| CC(OC(C)(C)C)C(NC(=O)OCC1c2ccccc2-c2ccccc21)C(=O)NC(Cc1ccccc1)C(=O)OCc1ccccc1 (stereo unspecified) (Fmoc-Thr(tBu)-Phe-OBn; configuration not given here) | > 100 | > 100 | > 100 | > 100 | > 100 | > 100 | > 100 | > 100 | > 100 | > 100 | > 100 |
| COc1ccccc1-c1cc(=O)c2cccnc2[nH]1 | > 100 | > 100 | > 100 | > 100 | > 100 | 56.7 | > 100 | > 100 | > 100 | > 100 | > 100 |
| C[N+](C)([O-])C12CC3CC(CC(C3)C1)C2 | > 100 | > 100 | > 100 | > 100 | > 100 | > 100 | > 100 | 80.6 | > 100 | > 100 | > 100 |
| CC1=NN(C(=O)CC(=O)Nc2cccc(C)c2)C(=O)C1N=Nc1ccc(C(=O)O)cc1 (stereo unspecified) | > 100 | > 100 | > 100 | > 100 | > 100 | > 100 | > 100 | > 100 | > 100 | > 100 | > 100 |
| COC1=C(OC)C(=O)C(Cc2c(-c3ccccc3)nc3sc(Cl)cn23)=C(C)C1=O | 24.7 | 27 | 56.5 | 36.1 | 33.3 | 34.2 | 41.8 | 30.5 | 31.6 | 35.8 | 33.3 |
| N#Cc1cc2c(n(C3OC(CO)C(O)C(O)C3O)c1=S)CCC2 (stereo unspecified) | > 100 | > 100 | > 100 | > 100 | > 100 | > 100 | > 100 | > 100 | > 100 | > 100 | > 100 |
| CCOC(=O)NC(Nc1ccc(C(=O)O)cc1)(C(F)(F)F)C(F)(F)F | > 100 | > 100 | > 100 | > 100 | > 100 | > 100 | > 100 | > 100 | > 100 | > 100 | > 100 |
| CC[P+](c1ccccc1)(N(C)C)N(C)C | > 100 | > 100 | > 100 | > 100 | > 100 | > 100 | > 100 | > 100 | > 100 | > 100 | > 100 |
| C=C(CCC(=O)N(CCc1c[nH]c2ccccc12)C(=O)c1ccccc1CSCC)C(=O)OC | > 100 | > 100 | > 100 | > 100 | > 100 | > 100 | > 100 | > 100 | > 100 | > 100 | > 100 |
| CN(CC(=O)O)c1ncc2c(n1)-c1ccccc1CC2 | > 100 | > 100 | > 100 | > 100 | > 100 | > 100 | > 100 | > 100 | > 100 | > 100 | > 100 |
| Nc1ncnc2c1ncn2CCCNO | > 100 | > 100 | > 100 | > 100 | > 100 | > 100 | > 100 | > 100 | > 100 | > 100 | > 100 |
| Cc1c(C)c2c(c(N)c1C#N)C(=O)N(NC(=S)Nc1ccccc1)C2=O | > 100 | > 100 | > 100 | > 100 | > 100 | > 100 | > 100 | > 100 | > 100 | > 100 | > 100 |
| O=C(O)C1C2OC(C(Br)C2Br)C1C(=O)O (stereo unspecified) | > 100 | > 100 | > 100 | > 100 | > 100 | > 100 | > 100 | > 100 | > 100 | > 100 | > 100 |
| C=C(C)C1CCC2(C)C1CCC1(C)C2CCC2C3(C)C4OC(OC4=O)C(C)(C)C3CCC21C (stereo unspecified) | 80.1 | > 100 | > 100 | > 100 | > 100 | > 100 | > 100 | > 100 | > 100 | > 100 | > 100 |
| c1csc(-c2cc(-c3ccsc3)cs2)c1 | > 100 | > 100 | > 100 | > 100 | > 100 | > 100 | > 100 | > 100 | > 100 | 93.8 | > 100 |
| Nc1ccc2c3c1cccc3c(=O)n1c3ccc(Cc4ccc5c(c4)nc4c6ccc(N)c7cccc(c(=O)n54)c76)cc3nc21 | > 100 | > 100 | > 100 |  | > 100 | > 100 | > 100 | > 100 | > 100 | > 100 | > 100 |
| Fc1cccc(C2ON=C(c3ccccc3)N2C23CC4CC(CC(C4)C2)C3)c1 (stereo unspecified) | > 10 | > 10 | > 10 | > 10 | > 10 | > 10 | > 10 |  | > 10 | > 10 | > 10 |
